# Reference: patent publication US12337037B2, “Taxol conjugate compounds, pharmaceutical compositions comprising the same, and methods for their use” (N1 Life, Inc, priority 2021, dated 2025)
# Values joined by “and” are separate entries in the source; they are usually repeats but may differ in a detail not shown here. Equal values may be shown once.
# What was measured:
# Stability in plasma, dog = format: in vitro ADME; conditions: for half-life: 37° C., read-out: Mean T1/2 (converted)
# Method: (§1) Working solutions of test compounds were prepared in PBS (pH 7.4). Propantheline was used as positive control for human, monkey, dog and mouse plasma in the assay. Mevinolin was used as positive control for rat plasma in this assay. 1 mM propantheline working solution was prepared in acetonitrile. 1 mM mevinolin working solution was prepared in DMSO. Incubation buffer of 475 μL plasma for each cell was added into the incubation plate and pre-warmed at 37° C. for 15 minutes. After the pre-incubation, 25 μL of working solution (test compounds or control compounds) was spiked to plasma. For Compound 5 and Compound 3, the final concentration of organic concentration was 0%. For Taxol, the final concentration of organic solvents was 0.25%. The assay was performed in duplicate. The reaction samples were incubated at 37° C. Aliquots of 50 μL were taken from the reaction samples at 0, 0.25, 0.5, 1, 2, 4, 6, 8 and 24 hours. The reactions were stopped by the addition of 450 μL of ice-cold quench solution (methanol with 2% FA containing internal standards). All samples were vortexed for 10 minutes, following by centrifugation at 3,220 g for 30 minutes to precipitate proteins. 100 μL of the supernatant from each well was transferred to a new plate. The supernatant was diluted with ultrapure water. Samples were analyzed by LC-MS/MS. All calculations were carried out using Microsoft Excel. Peak area ratios were determined from extracted ion chromatograms. Percent compounds remaining at each time point were calculated by the following equation: Remaining Percentaget min(%)=Peak Area Ratiot min/Peak Area Ratio0 min×100
# (§2) Peak Area Ratiot min is peak area ratio of control and test compounds at t min; and
# (§3) Peak Area Ratio0 min is peak area ratio of control and test compounds at zero time point.
# (§4) The slope value, k, was determined by linear regression of the natural logarithm of the remaining percentage of the parent drug vs. incubation time curve.
# (§5) The in vitro half-life (in vitro t1/2) was determined from the slope value: in vitro t1/2=(0.693/k)
# Stability in plasma, rat = format: in vitro ADME; conditions: for half-life: 37° C., read-out: Mean T1/2 (converted)
# Method: as §1, §2, §3, §4, §5
# [1] = tested on: NCI-H460-luc2 human intracranial cells; assay: Efficacy against brain cancer: survival in NCI-H460-luc2 intracranial model; format: in vivo, Female BALB/c nude mice; conditions: for Increase Life Span (%): vs vehicle group; for Median Survival Time: MST ± SEM
# Method: Cell Culture: Luciferase marked NCI-H460-luc2 human intracranial cells were maintained in vitro as a monolayer culture in ATCC formulated RPMI1640 medium supplemented with 10% heat inactivated fetal bovine serum, 100 U/mL penicillin and 100 μg/mL streptomycin at 37° C. in an atmosphere of 5% CO2 in air. The tumor cells were routinely subcultured twice weekly by trypsin-EDTA treatment. The cells growing in an exponential growth phase were harvested and counted for tumor inoculation.
# Tumor Inoculation and Animal Grouping: Female BALB/c nude mice were anesthetized with avertin (20 μL/g). The animals were dosed intraperitoneally with 10 mg/kg of carprofen 30 minutes post-surgery for pain relief.
# The anesthetized mouse was properly positioned. The surgical area was prepped with 70% ethanol solution. Using a sterile scalpel, a sagittal incision was made over the parieto-occipital bone, approximately 1 cm long. The exposed skull surface was then cleaned using a cotton swab soaked in 0.9% saline. Prior to tumor cell injection, a sterile 25 gauge sharp needle was used to puncture the skull at 2 mm to the right of the bregma and 1 mm anterior to the coronal suture, thereby creating an opening for the injection of tumor cells. Prior to drawing cells into the syringe, the contents of the cell suspension was mixed by tapping with finger. The syringe was loaded with the desired amount of cell suspension, and extra care was taken to avoid air bubbles. The outside of syringe was then cleaned with an alcohol swab to wipe the exterior free of any adherent cells, which helped to prevent extracranial tumor establishment and growth. To ensure that the appropriate injection depth was achieved, a 3 mm length was cut off on pointed end of a P20 pipetteman tip by a scalpel. This section of the tip was fitted over the syringe to limit the injection depth, and to ensure that the tip of the syringe needle was 3 mm from the underside of the skull. The syringe was placed perpendicular to the skull, in the hole previously created. And the cell suspension was slowly injected (a 3 μL suspension contains 1×10^5 NCI-H460-luc2 cells in 20% Matrigel should be injected over a 1 minute period). Intraventricular injection of cells and subsequent spinal dissemination was prevented by appropriate angle of syringe insertion. Upon completion of injection, the needle was left in place for another minute, and then slowly withdrawn. The hole as closed with medical anastomotic glue (OB). Using forceps, the scalp was drawn together over the skull and the incision was closed with surgical suture. The mice were kept warm until completely recovered from anesthesia.
# Animals were selected and randomized (based on their bioluminescence density) on day 4 after tumor implantation.
# Observations: During routine monitoring, the animals were checked daily for any effects of tumor growth and treatments on normal behavior such as mobility, food and water consumption (by looking only), body weight gain/loss (body weights were measured twice weekly or daily), eye/hair matting and any other abnormal effect stated in the protocol. Death and observed clinical signs were recorded on the basis of the numbers of animals within each subset.
# Bioluminescence Measurements and Endpoints: The surgically inoculated mice were weighed and intraperitoneally administered luciferin at a dose of 150 mg/kg. Ten to fifteen minutes after the luciferin injection, the animals were pre-anesthetized with the mixture gas of oxygen and isoflurane. When the animals were in a complete anesthetic state, the mice were moved into the imaging chamber for bioluminescence measurements with an IVIS (Lumina II) imaging system.
# The major endpoint was to determine if the tumor bioluminescence growth can be delayed, decreased, or vanished. […] The bioluminescence of the whole animal body, including primary and metastatic tumors, was measured and recorded once per week according to protocol (bioluminescence data not shown). […]
SMILES,"half-life (Stability in plasma, dog) [h]","half-life (Stability in plasma, rat) [h]",Increase Life Span (%) ([1]; Compound 3 9.6 mg/kg),Median Survival Time ([1]; Compound 3 9.6 mg/kg) [days],Increase Life Span (%) ([1]; Compound 3 19.2 mg/kg),Median Survival Time ([1]; Compound 3 19.2 mg/kg) [days],survivors at the end point ([1]; Compound 3 38.4 mg/kg),Increase Life Span (%) ([1]; Compound 3 38.4 mg/kg),"Median Survival Time ([1]; Compound 3 38.4 mg/kg, 38.4 mg/kg)","Percent Increase of T1/2, Compound 3 over Compound 5 (Stability in plasma, dog) [%]","Percent Increase of T1/2, Compound 3 over Compound 5 (Stability in plasma, rat) [%]",Increase Life Span (%) ([1]; Paclitaxel 10 mg/kg),Median Survival Time ([1]; Paclitaxel 10 mg/kg)
"CC(=O)N[C@H](CSSCCCC(=O)O[C@@H](C(=O)O[C@H]1C[C@@]2(O)[C@@H](OC(=O)c3ccccc3)[C@@H]3[C@]4(OC(C)=O)CO[C@@H]4C[C@H](O)[C@@]3(C)C(=O)[C@H](OC(C)=O)C(=C1C)C2(C)C)[C@@H](NC(=O)c1ccccc1)c1ccccc1)C(=O)N[C@H](CCCNC(=N)N)C(=O)N[C@H](CCCNC(=N)N)C(=O)N[C@H](CCCNC(=N)N)C(=O)N[C@H](CCCNC(=N)N)C(=O)N[C@H](CCCNC(=N)N)C(=O)N[C@H](CCCNC(=N)N)C(=O)N[C@H](CCCNC(=N)N)C(=O)N[C@H](CCCNC(=N)N)C(N)=O [Compound 5, Ac-D-Cysteine (paclitaxel-4-mercaptobutanoate)-D-Arginine8-NH2]",2.76,0.3,,,,,,,,,,,
"CC(=O)N[C@@H](CSSCCCC(=O)OC(C(=O)O[C@H]1C[C@@]2(O)[C@@H](OC(=O)c3ccccc3)[C@@H]3[C@]4(OC(C)=O)CO[C@@H]4C[C@H](O)[C@@]3(C)C(=O)[C@H](OC(C)=O)C(=C1C)C2(C)C)[C@@H](NC(=O)c1ccccc1)c1ccccc1)C(=O)N[C@H](CCCNC(=N)N)C(=O)N[C@H](CCCNC(=N)N)C(=O)N[C@H](CCCNC(=N)N)C(=O)N[C@H](CCCNC(=N)N)C(=O)N[C@H](CCCNC(=N)N)C(=O)N[C@H](CCCNC(=N)N)C(=O)N[C@H](CCCNC(=N)N)C(=O)N[C@H](CCCNC(=N)N)C(N)=O (stereo partly drawn) [Compound 3, Ac-L-Cysteine (paclitaxel-4-mercaptobutanoate)-D-Arginine8-NH2]",2.79,0.45,0.00,14,−28.57,10 ± 2,one mouse in Compound 3 38.4 mg/kg group was still alive,0.00,14 days and 14 ± 1 days,1,50,,
"CC(=O)O[C@H]1C(=O)[C@@]2(C)[C@H]([C@H](OC(=O)c3ccccc3)[C@]3(O)C[C@H](OC(=O)[C@H](O)[C@@H](NC(=O)c4ccccc4)c4ccccc4)C(C)=C1C3(C)C)[C@]1(OC(C)=O)CO[C@@H]1C[C@@H]2O [Taxol, paclitaxel]",,,,,,,,,,,,−28.57,10 days and 10 ± 1 days
